Assay results as given in PubChem BioAssay AID1845197 (Molecular Pharmacology Branch, DTP, NCI, 2023).

Tested on: 349418-098-R tumor spheroid viability
Assay: Anticancer human tumor 349418-098-R patient-derived lung adenocarcinoma cell line growth inhibition
Conditions: spheroids with HUVEC and MSC; for IC50: curve of first compound; for viability, T/C: stronger effect = lower value
Outline: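 Complex tumor spheroids combined malignant cells with endothelial cells and mesenchymal stem cells. DNA-damaging drugs and DNA repair inhibitors were tested alone and in combination, at half-log dilutions down from clinical Cmax (top 10 microM if Cmax unknown), 0.25% DMSO final.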
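Note: spheroids exposed to compound for 7 days before measurement.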
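Throughout, for viability, T/C: percent of vehicle control viability with 100% = DMSO-treated spheroids.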

SMILES: CC1COCCN1c1cc(-c2ccnn2C)c2ccnc(-c3ccn[nH]3)c2n1 (stereo not given) + Cn1nnc2c(C(N)=O)ncn2c1=O
- IC50 (second compound 1 µM): 0.0664 µM
- IC50 (second compound 3.16 µM): 0.064 µM
- IC50 (second compound 10 µM): 0.0614 µM
- IC50 (second compound 31.6 µM): 0.0679 µM
- IC50 (second compound 100 µM): 0.0526 µM
- viability, T/C (second compound 1 µM, first compound 0.0316 µM): 90.2%
- viability, T/C (second compound 1 µM, first compound 0.1 µM): 27.8%
- viability, T/C (second compound 1 µM, first compound 0.316 µM): 11.8%
- viability, T/C (second compound 1 µM, first compound 1 µM): 11.1%
- viability, T/C (second compound 1 µM, first compound 3.16 µM): 11.1%
- viability, T/C (second compound 1 µM, first compound 10 µM): 10.9%
- viability, T/C (second compound 3.16 µM, first compound 0.0316 µM): 90.5%
- viability, T/C (second compound 3.16 µM, first compound 0.1 µM): 24.4%
- viability, T/C (second compound 3.16 µM, first compound 0.316 µM): 12.5%
- viability, T/C (second compound 3.16 µM, first compound 1 µM): 10.3%
- viability, T/C (second compound 3.16 µM, first compound 3.16 µM): 11.1%
- viability, T/C (second compound 3.16 µM, first compound 10 µM): 10.4%
- viability, T/C (second compound 10 µM, first compound 0.0316 µM): 90.7%
- viability, T/C (second compound 10 µM, first compound 0.1 µM): 20%
- viability, T/C (second compound 10 µM, first compound 0.316 µM): 11.9%
- viability, T/C (second compound 10 µM, first compound 1 µM): 9.88%
- viability, T/C (second compound 10 µM, first compound 3.16 µM): 11.1%
- viability, T/C (second compound 10 µM, first compound 10 µM): 9.65%
- viability, T/C (second compound 31.6 µM, first compound 0.0316 µM): 91.9%
- viability, T/C (second compound 31.6 µM, first compound 0.1 µM): 28.8%
- viability, T/C (second compound 31.6 µM, first compound 0.316 µM): 10.5%
- viability, T/C (second compound 31.6 µM, first compound 1 µM): 9.5%
- viability, T/C (second compound 31.6 µM, first compound 3.16 µM): 11.8%
- viability, T/C (second compound 31.6 µM, first compound 10 µM): 10.2%
- viability, T/C (second compound 100 µM, first compound 0.0316 µM): 77.9%
- viability, T/C (second compound 100 µM, first compound 0.1 µM): 14.8%
- viability, T/C (second compound 100 µM, first compound 0.316 µM): 9.79%
- viability, T/C (second compound 100 µM, first compound 1 µM): 9.43%
- viability, T/C (second compound 100 µM, first compound 3.16 µM): 9.05%
- viability, T/C (second compound 100 µM, first compound 10 µM): 9.14%
